Literature values, collected in patent publication US20130065255A1, “Biomarker to Measure Drug Efficacy in Enteropathic Disease” (priority 2011, published 2013).

Columns and labels:
[1] = humans
[2] = 20 mg simvastatin dose, healthy volunteers, Park et al

Structure (SMILES)	dose excreted unchanged in the urine [1]	SVA Cmax [2] [ng/mL]
Cc1ncc2n1-c1ccc(Cl)cc1C(c1ccccc1F)=NC2 [midazolam]	less than 1%	–
CCC(C)(C)C(=O)O[C@H]1C[C@@H](C)C=C2C=C[C@H](C)[C@H](CC[C@@H](O)C[C@@H](O)CC(=O)O)[C@H]21 [Simvastatin acid, simvastatin acid]	–	1.2 ± 1.0
